# Measured values taken from patent US20020187538A1, “cDNA clone of (+)- delta-cadinene-8-hydroxylase gene from cotton plants” (priority 2001, published 2002).
# Test system: CYP706B1
# Experiment: (+)-d-cadinene hydroxylase activity assay, inhibitors and cofactor
# Format: biochemical, Gossypium arboreum
# Conditions: for sensitivity to inhibition: qualitative statement, taken as indication of a cytochrome P450
# Experimental: The yeast Saccharomyces cerevisiae strain W(R), which overexpresses the yeast cytochrome P450 reductase when grow on galactose, and the expression vector pYeDP60 were provided by D. Pompon (Pompon et al (1996) Methods Enzymol. 272, 51-64). The cDNA of CYP706B1 was modified by PCR with a 5′-terminal primer 5ç-[…] (sense), in which a Kpn I site was introduced, and a 3′-terminal primer 5ç-[…] (reverse), in which a Sac I site was introduced. PCR was conducted on plasmid DNA by using Pyrobest™ DNA polymerase (TaKaRa). After digestion with the restriction enzymes, the fragment was inserted into pYeDP60. Plasmid DNA was introduced into yeast cells by a LiAc method, transformed yeast cells were then selected, cultured, and induced, and microsomes were prepared following a high density procedure (Pompon et al (1996) Methods Enzymol. 272, 51-64).
# The (+)-d-cadinene hydroxylase activity assay was based on a published protocol for monoterpene P450 hydroxylases (Mihaliak et al. (1993) Methods Plant Biochem. 9, 261-279). The radioactive assay was conducted in […] of potassium phosphate buffer (50 mM, pH 7.4) containing 1 mM EDTA (pH 8.0), 0.4 M sucrose, 2 mM DTT, 0.1% BSA, 1 mM NADPH, 5 mM FAD, 5 mM FMN, 4 mM glucose-6-phosphate, 1 unit of glucose-6-phosphate dehydrogenase, […] ^3H-(+)-d-cadinene (32 mCi/mmol) and yeast microsomes (100^˜[…] protein). The reaction was started by adding the microsomes, incubated at 30° C. for 1 hr, and stopped by chilling on ice. The reaction mixture was extracted three times with […] hexane:ethyl acetate (1:1), the extract was filtered through a 0.2 g, 100^˜200 mesh silica gel column in a pasteur pipet, eluted with 1.5 mL hexane:ethyl acetate (1:1), and concentrated to ca […] with an argon stream. The entire sample was subjected to reversed phase HPLC on C18 silica (250×4.6 mm, […] particle diameter) with a gradient of 40:60 to 100:0 acetonitrile/water (v/v) over 60 min followed by 10 min of 100% acetonitrile, flow rate 1 mL/min. Tritium was detected by an on-line liquid scintillation counter (b-RAM, IN/US Systems, Inc., Tampa, Fla.). […]
Compound,sensitivity to inhibition,"inhibition of the hydroxylase activity (reaction mixture treated with a slow stream of CO for about 2 min, yeast microsomes containing CYP706B1) [%]"
"[C-]#[O+] [CO, carbon monoxide]",sensitivity to inhibition,70
Clc1ccc(COC(Cn2ccnc2)c2ccc(Cl)cc2Cl)c(Cl)c1 (stereo not drawn) [miconazole],sensitivity to inhibition,
